By EC50 is commonly meant the concentration that produces a half-maximal response. In general, IC50 refers to the concentration that gives 50% inhibition.

The values that follow come from PMC10892719 (Pharmaceutics, 2024).

For data set [1], the system named is SH-SY5Y cells. Nature of the data set: Neuroprotection against iron/ascorbate-induced toxicity, MTT. The data set is classed as cell-based, human. Conditions: ferrous sulfate 5 mM and L-ascorbic acid 2.5 mM, 24 h, optimized concentration of each compound. On the procedure: (§1) Cell viability, following treatment with the compounds, was determined using the colorimetric MTT (3-(4,5-dimethylthiazol-2-yl)-2,5-diphenyltetrazolium bromide) assay. The tested compounds (5a1-3, 5b1-3, 5c1-3) were dissolved in DMSO to produce stock solutions of 25 mM and stored at −20 °C. A concentration screening was performed for 0.5 µM to 20 µM final concentrations to choose the highest nontoxic concentration. SH-SY5Y human neuroblastoma cell line (ATCC-CRL-2266) was cultured in Dulbecco’s modified Eagle’s medium (DMEM) (Gibco-Invitrogen, Life Technologies Ltd., Waltham, MA, USA) with heat-inactivated fetal calf serum (10%), penicillin (50 U/mL) and streptomycin (50 µg/mL) at 37 °C with 5% CO2. Cells were plated at 0.15 × 10^6 cells/mL one day prior to the start of the experiment. The cells were then incubated with the appropriate concentration of the compounds for 24 h. After the incubation period, the cells were washed once with PBS and incubated with 200 µL MTT (0.5 mg/mL) for 2 h at 37 °C with 5% CO2. During this period, cellular dehydrogenase successfully metabolized MTT into formazan, which was then solubilized using 200 µL of 0.04 M HCl/isopropanol. Absorbance was measured at 570 nm.
To test whether the compounds have a protective effect against toxicity induced by Aβ1-42 or iron/ascorbate, the cells were pre-incubated for 1 h with each compound, followed by the addition of Aβ1-42 or iron/ascorbate and incubation for an additional 24 h. Aβ1-42 (Bachem, Torrance, CA, USA) was prepared in sterile water to produce a stock solution of 443 µM and added to the cells at a final concentration of 1 µM. […] All data are expressed as mean ± SEM of at least three independent experiments performed in duplicate. […]
Figure 5 Neuroprotective effect of RIV-IND compounds against cellular toxicity induced by iron/ascorbate (Fe/Asc) measured by MTT reduction ability on SH-SY5Y cells pretreated with iron/ascorbate for one hour, followed by a 24 h incubation with the optimized concentration of each compound. […]

A short description of data set [2]: DPPH free radical scavenging (antioxidant) assay. Conditions: read-out: Antioxidant Activity EC50; DPPH method, mean of three independent experiments. In general terms: Loss of DPPH colour is used to gauge radical scavenging.
Description: The radical scavenging activity (antioxidant capacity) of the herein-developed RIV-IND hybrids was determined by the DPPH method [33]. Working solutions of the compounds in 10% DMSO/MeOH (, HoneywellSeelze, Germany) medium were used to prepare 5 methanolic solutions (5 points, 3 replicates) containing DPPH (Sigma-Aldrich, Steinheim, Germany) and different concentrations of compound up to 3.5 mL total volume. […] The respective antioxidant activity (%AA) was calculated using the following equation: %AA=ADPPH−Aligand/ADPPH×100
The reported results were obtained as the mean values of three independent experiments.
The new RIV-IND compounds were also screened for their radical scavenging activity (EC50), according to the 2,2-diphenyl-1-picrylhydrazyl (DPPH) free radical method.
Data set [3] has as its system SH-SY5Y cells. Nature of the data set: Cell viability dose-response screening, MTT. The data set is classed as cell-based, human. The protocol:
as §1
The new RIV-IND hybrids were tested to determine their protective role in the toxicity induced by either Aβ1-42 peptides or iron/ascorbate. SH-SY5Y cells were incubated with a set of concentrations of each of the compounds and a dose–response curve was constructed to select the highest nontoxic concentration.
Figure 3 Dose–response screening of RIV-IND compounds 5a1-3, 5b1-3 and 5c1-3 measured by MTT reduction ability on SH-SY5Y cells treated with different concentrations of the compounds for 24 h. Results are expressed relatively to untreated cells, with the mean ± standard error of the mean (SEM) derived from three independent experiments. * p < 0.05; ** p < 0.01; *** p < 0.001 compared to untreated cells. (The dot line indicates 100% cellular viability).

The target of data set [4] is T1, equine butyrylcholinesterase (eqBChE) (Equus caballus, UniProt P81908).
T1 construct: purchased Sigma-Aldrich (Steinheim, Germany)
T1 sequence (P81908 whole entry): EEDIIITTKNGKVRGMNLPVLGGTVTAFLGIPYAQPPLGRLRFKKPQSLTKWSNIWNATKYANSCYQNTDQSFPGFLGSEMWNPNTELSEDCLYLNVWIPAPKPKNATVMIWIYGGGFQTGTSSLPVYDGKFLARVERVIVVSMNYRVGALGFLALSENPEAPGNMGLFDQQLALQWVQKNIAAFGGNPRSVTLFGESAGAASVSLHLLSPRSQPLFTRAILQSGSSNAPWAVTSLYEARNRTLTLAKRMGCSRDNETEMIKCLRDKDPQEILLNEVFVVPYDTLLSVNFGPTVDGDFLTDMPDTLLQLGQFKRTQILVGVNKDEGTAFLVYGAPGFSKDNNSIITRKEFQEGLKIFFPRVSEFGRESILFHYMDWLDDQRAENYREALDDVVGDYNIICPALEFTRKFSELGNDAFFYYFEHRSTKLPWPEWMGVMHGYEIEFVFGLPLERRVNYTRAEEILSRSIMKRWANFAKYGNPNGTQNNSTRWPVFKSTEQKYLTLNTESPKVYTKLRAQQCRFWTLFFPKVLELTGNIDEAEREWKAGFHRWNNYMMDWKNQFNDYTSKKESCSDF
Nature of the data set: BChE inhibition, adapted Ellman method. The data set is classed as biochemical. To be noted: for SI (selectivity index): IC50 (AChE)/IC50 (BChE); for IC50: eqBChE, mean of two independent experiments ± SD, read-out: BChE Inhib IC50. On the procedure:
The enzyme inhibition of electric eel acetylcholinesterase (eeAChE) and equine butyrylcholinesterase (eqBChE) by our compounds was evaluated through an adaptation of Elmman´s method using reagents from Sigma-Aldrich (Steinheim, Germany). Stock solutions of each compound (1 mg) in MeOH (1 mL) were prepared and then working solutions for each ligand were obtained by the corresponding dilution of the stock solutions. A control measurement with 5 replicates (without ligand) and a calibration curve of 5 points with 3 replicates per point was performed. The preparation of each solution involved fixed volumes of 4-(2-hydroxyethyl)-1-piperazine-ethanesulfonic acid (HEPES) and cholinesterase (eeAChE or eqBChE) with different volumes of ligand solution, and it was left to rest for 15 min immediately after adding the cholinesterase. A blank solution containing HEPES and MeOH was also prepared at the same time. […] The slope for each calibration point (absorbance versus reaction time) was determined and the inhibition for each compound was calculated by using the following equation: %Inhibition=100−(vi/v0×100) where vi is the reaction rate (slope) for each point of the calibrate with ligand and v0 is the initial reaction rate (slope) for the control point (without ligand). […] Experiments were performed twice for each compound.
A general note: DTNB colorimetry detects thiols as they appear.

Each structure is given as a SMILES string.

For the compound `CCN(C)C(=O)Oc1cccc(CNC(=O)c2cc3ccccc3[nH]2)c1` [Compound 5b1, 3-((1H-indole-2-carboxamido)methyl)phenyl ethylmethylcarbamate], in data set [1], the “neuroprotective effect against toxicity induced by iron/ascorbate” value is given as “also present a neuroprotective effect”. The EC50 in data set [2] is over 2000 µM. Besides, in data set [3] (when used with Aβ1-42), the highest nontoxic concentration is recorded as 2.5 µM. The compound also returned a highest nontoxic concentration in data set [3] (when used with iron/ascorbate) of 1 µM. In data set [4], the “SI (selectivity index)” value is 9.4 and the IC50 was 8.3 ± 0.1 µM.

As for `CCN(C)C(=O)Oc1cccc(NC(=O)c2cc3cccc(O)c3[nH]2)c1` [Compound 5a3, 3-(7-Hydroxy-1H-indole-2-carboxamido)phenyl ethyl(methyl)carbamate], the “neuroprotective effect against toxicity induced by iron/ascorbate” value in data set [1] is listed as “also present a neuroprotective effect”. Besides, the EC50 in data set [2] was 14.5 ± 0.5 µM. This compound also returned a highest nontoxic concentration in data set [3] (24 h, screening 0.5 µM to 20 µM) of 2.5 µM. In addition, in data set [4], the “SI (selectivity index)” value was 1.05 and the IC50 was determined as 10.4 ± 0.4 µM.
